Results taken from PMC10794144, “A novel antibiotic class targeting the lipopolysaccharide transporter” (Nature, 2024).
Values after ≈ are worked out from the molar mass of the structure shown.

Tested on: A. baumannii
Experiment: microbe, parasite or virus in culture
How it was run: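 CLSI broth microdilution (M07/M100); inoculum from 0.5 McFarland suspension diluted in CAMHB; MIC = lowest concentration with no visible growth or where OD600 stops falling.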

CN1C(=O)[C@H](CCCCN)NC(=O)[C@H](CCCN)NCc2cccnc2Sc2c(Cl)ccc(Cl)c2CNC(=O)[C@@H]1Cc1c[nH]c2ccccc12 [RO7075573]
MIC 80% (ROB08707, Study ROC012): 0.12 µg/mL (≈ 0.162 µM) | MIC 100% (ROB08707, Study ROC012): 32 µg/mL (≈ 43.3 µM) | MIC 80% (ROB08708, Study LGC281440): ≤0.06 µg/mL | MIC 100% (ROB08708, Study LGC281440): 16 µg/mL (≈ 21.6 µM) | MIC 80% (ROB08708, Study LGC282160): 0.12 µg/mL (≈ 0.162 µM) | MIC 100% (ROB08708, Study LGC282160): 64 µg/mL (≈ 86.5 µM) | MIC 80% (ROB08708, Study LGC284879): 0.12 µg/mL (≈ 0.162 µM) | MIC 100% (ROB08708, Study LGC284879): >64 µg/mL | MIC 80% (ROB08708, Study LGC285582): ≤0.06 µg/mL | MIC 100% (ROB08708, Study LGC285582): 64 µg/mL (≈ 86.5 µM) | MIC 80% (ROB08708, Study LGC286210): 0.12 µg/mL (≈ 0.162 µM) | MIC 100% (ROB08708, Study LGC286210): 64 µg/mL (≈ 86.5 µM) | MIC 80% (ROB08708, Study LGC293598): ≤0.06 µg/mL | MIC 100% (ROB08708, Study LGC293598): >64 µg/mL | MIC 80% (ROB08708, Study LGC294355): 0.12 µg/mL (≈ 0.162 µM) | MIC 100% (ROB08708, Study LGC294355): >64 µg/mL | MIC 80% (ROB08708, Study LGC295147): 0.12 µg/mL (≈ 0.162 µM) | MIC 100% (ROB08708, Study LGC295147): 64 µg/mL (≈ 86.5 µM) | MIC 80% (ROB08708, Study LGC296813): 0.12 µg/mL (≈ 0.162 µM) | MIC 100% (ROB08708, Study LGC296813): >64 µg/mL | MIC 80% (ROB08708, Study LGC299544): 0.12 µg/mL (≈ 0.162 µM) | MIC 100% (ROB08708, Study LGC299544): 64 µg/mL (≈ 86.5 µM) | MIC 80% (ROB08708, Study LGC301026): 0.12 µg/mL (≈ 0.162 µM) | MIC 100% (ROB08708, Study LGC301026): >64 µg/mL | MIC 80% (ROB08708, Study LGC308175): ≤0.06 µg/mL | MIC 100% (ROB08708, Study LGC308175): 64 µg/mL (≈ 86.5 µM) | MIC 80% (ROB08708, Study ROC010): 0.12 µg/mL (≈ 0.162 µM) | MIC 100% (ROB08708, Study ROC010): 16 µg/mL (≈ 21.6 µM) | MIC 80% (ROB08708, Study ROC012): 0.12 µg/mL (≈ 0.162 µM) | MIC 100% (ROB08708, Study ROC012): 64 µg/mL (≈ 86.5 µM) | MIC 80% (ROB08709, Study LGC281440): 0.12 µg/mL (≈ 0.162 µM) | MIC 100% (ROB08709, Study LGC281440): 16 µg/mL (≈ 21.6 µM) | MIC 80% (ROB08709, Study LGC282160): 0.12 µg/mL (≈ 0.162 µM) | MIC 100% (ROB08709, Study LGC282160): >64 µg/mL | MIC 80% (ROB08709, Study LGC284879): 0.25 µg/mL (≈ 0.338 µM) | MIC 100% (ROB08709, Study LGC284879): >64 µg/mL | MIC 80% (ROB08709, Study LGC285582): 0.12 µg/mL (≈ 0.162 µM) | MIC 100% (ROB08709, Study LGC285582): 64 µg/mL (≈ 86.5 µM) | MIC 80% (ROB08709, Study LGC286210): 0.12 µg/mL (≈ 0.162 µM) | MIC 100% (ROB08709, Study LGC286210): 64 µg/mL (≈ 86.5 µM) | MIC 80% (ROB08709, Study LGC293598): 0.12 µg/mL (≈ 0.162 µM) | MIC 100% (ROB08709, Study LGC293598): >64 µg/mL | MIC 80% (ROB08709, Study LGC294355): 0.12 µg/mL (≈ 0.162 µM) | MIC 100% (ROB08709, Study LGC294355): >64 µg/mL | MIC 80% (ROB08709, Study LGC295147): 0.12 µg/mL (≈ 0.162 µM) | MIC 100% (ROB08709, Study LGC295147): 64 µg/mL (≈ 86.5 µM) | MIC 80% (ROB08709, Study LGC296813): 0.12 µg/mL (≈ 0.162 µM) | MIC 100% (ROB08709, Study LGC296813): 64 µg/mL (≈ 86.5 µM) | MIC 80% (ROB08709, Study LGC299544): 0.25 µg/mL (≈ 0.338 µM) | MIC 100% (ROB08709, Study LGC299544): 64 µg/mL (≈ 86.5 µM) | MIC 80% (ROB08709, Study LGC301026): 0.12 µg/mL (≈ 0.162 µM) | MIC 100% (ROB08709, Study LGC301026): 64 µg/mL (≈ 86.5 µM) | MIC 80% (ROB08709, Study LGC308175): 0.12 µg/mL (≈ 0.162 µM) | MIC 100% (ROB08709, Study LGC308175): >64 µg/mL | MIC 80% (ROB08709, Study ROC010): 0.25 µg/mL (≈ 0.338 µM) | MIC 100% (ROB08709, Study ROC010): 64 µg/mL (≈ 86.5 µM) | MIC 80% (ROB08709, Study ROC012): 0.25 µg/mL (≈ 0.338 µM) | MIC 100% (ROB08709, Study ROC012): 64 µg/mL (≈ 86.5 µM) | MIC 80% (ROB08710, Study LGC281440): 0.25 µg/mL (≈ 0.338 µM) | MIC 100% (ROB08710, Study LGC281440): 8 µg/mL (≈ 10.8 µM) | MIC 80% (ROB08710, Study LGC282160): 0.25 µg/mL (≈ 0.338 µM) | MIC 100% (ROB08710, Study LGC282160): 64 µg/mL (≈ 86.5 µM) | MIC 80% (ROB08710, Study LGC284879): 0.25 µg/mL (≈ 0.338 µM) | MIC 100% (ROB08710, Study LGC284879): >64 µg/mL | MIC 80% (ROB08710, Study LGC285582): 0.25 µg/mL (≈ 0.338 µM) | MIC 100% (ROB08710, Study LGC285582): 64 µg/mL (≈ 86.5 µM) | MIC 80% (ROB08710, Study LGC286210): 0.12 µg/mL (≈ 0.162 µM) | MIC 100% (ROB08710, Study LGC286210): 64 µg/mL (≈ 86.5 µM) | MIC 80% (ROB08710, Study LGC293598): 0.12 µg/mL (≈ 0.162 µM) | MIC 100% (ROB08710, Study LGC293598): >64 µg/mL | MIC 80% (ROB08710, Study LGC294355): 0.5 µg/mL (≈ 0.676 µM) | MIC 100% (ROB08710, Study LGC294355): >64 µg/mL | MIC 80% (ROB08710, Study LGC295147): 0.12 µg/mL (≈ 0.162 µM) | MIC 100% (ROB08710, Study LGC295147): 32 µg/mL (≈ 43.3 µM) | MIC 80% (ROB08710, Study LGC296813): 0.12 µg/mL (≈ 0.162 µM) | MIC 100% (ROB08710, Study LGC296813): 64 µg/mL (≈ 86.5 µM) | MIC 80% (ROB08710, Study LGC299544): 0.5 µg/mL (≈ 0.676 µM) | MIC 100% (ROB08710, Study LGC299544): 64 µg/mL (≈ 86.5 µM) | MIC 80% (ROB08710, Study LGC301026): 0.12 µg/mL (≈ 0.162 µM) | MIC 100% (ROB08710, Study LGC301026): 64 µg/mL (≈ 86.5 µM) | MIC 80% (ROB08710, Study LGC308175): 0.12 µg/mL (≈ 0.162 µM) | MIC 100% (ROB08710, Study LGC308175): 32 µg/mL (≈ 43.3 µM) | MIC 80% (ROB08710, Study ROC010): 0.25 µg/mL (≈ 0.338 µM) | MIC 100% (ROB08710, Study ROC010): 0.5 µg/mL (≈ 0.676 µM) | MIC 80% (ROB08710, Study ROC012): 0.25 µg/mL (≈ 0.338 µM) | MIC 100% (ROB08710, Study ROC012): 32 µg/mL (≈ 43.3 µM) | Fold more potent than RO7036668 (panel of A. baumannii): 4- to 64 fold
